From US20110104173A1, “INHIBITION OF DEGRADATION OF EXTRACELLULAR MATRIX” (The Australian National University, priority 2006, published 2011)

Assays:
[1] = system: BALB/c (H-2d) islet allografts in CBA/H (H-2k) mice; experiment: BALB/c islet allograft survival in CBA/H mice; format: in vivo, mouse; conditions: 7 days post-transplant, PI-88 treated recipient vs control
From the text: HS plays a critical role in maintaining the integrity and survival of islets and islet beta cells. […] It is therefore possible that heparanase also plays an important role in the immunological destruction of islet allografts (even in the absence of autoimmune attack). […] Heparanase inhibitors therefore represent an anti-rejection strategy for islet transplants in allogeneic hosts and have the capacity to protect grafted islets from both alloimmune and autoimmune attack.

[2] = system: prediabetic adult female NOD/Lt mice; experiment: PI-88 treatment of prediabetic NOD/Lt mice, onset of autoimmune diabetes; format: in vivo, mouse; conditions: PI-88 10 mg/kg/day i.p. from 10.5 weeks of age, vs saline controls
From the text: FIG. 3: PI-88 treatment prevents development of autoimmune diabetes in NOD/Lt mice. […] The incidence of diabetes in the holding female NOD/Lt mouse colony of the inventors is 60%.
Studies conducted by the inventors have shown that heparanase transcripts are increased 7-fold in prediabetic and diabetes-onset NOD mice, compared to neonatal NOD mice; only background levels were detected in normal CBA/H mice (see TABLE 1).

[3] = system: NODscid islet isografts in diabetic NOD/Lt female mice; experiment: NODscid islet isografts in diabetic NOD/Lt mice, recurrence of autoimmune disease; format: in vivo, mouse
From the text: FIG. 8: (a) PI-88 therapy prevents disease recurrence in islet isografts. Isografts of 450-500 female NODscid islets transplanted beneath the kidney capsule of diabetic NOD/Lt female mice return non-fasting blood glucose levels to the normal range (shaded region defines the normal range). Without further treatment in a control recipient (circles), hyperglycemia returned from day 3. In contrast, an NODscid islet isograft maintains normoglycemia for up to 14 days in a diabetic NOD mouse treated with PI-88 (10 mg/kg/day i.p.) from day 3 (squares).
Consequently in vivo treatment of transplanted mice with PI-88 should prevent islet allograft rejection, disease recurrence in islet isografts (see FIG. 8) and facilitate the survival and function of islet allografts in diabetic NOD/Lt mice. To assess whether PI-88 therapy is graft-protective, NODscid islets were transplanted to autoimmune diabetic NOD mice 400-500 islets/graft. The mice were treated with PI-88 (10 mg/kg/day) i.p. from day 3 post-transplant (after graft revascularisation). Control transplanted mice were treated with saline. Graft function was monitored by measurement of non-fasting blood glucose levels (using a glucometer (MediSense 2)) 2-3×/week.

[4] = system: lipopolysaccharride (LPS)-induced inflammation; conditions: in vivo treatment, rodents; cited from earlier work
skin allograft = conditions: heparins exhibiting some anti-heparanase activity, mice; cited from earlier work
BALB/c islet beta cells = experiment: Islet beta cell survival in vitro after heparitinase treatment; format: cell-based, mouse; conditions: 5-50 μg/ml heparin in culture, P<0.0001
From the text: FIG. 9: Isolated islets dispersed into single cells are predominantly insulin-producing beta cells, as confirmed by immunofluorescence. In contrast to control islet cells that remained intact over a 2 day culture period, beta cells treated for 1 hr with bacterial heparitinases (heparinases) (I+II+III; 0.25 U/ml) died (a). Placement of treated cells on an ECM (produced in vitro by a cell line) was able to largely rescue the beta cells from heparitinase-induced cell death (a).
In vitro studies were undertaken to further validate this concept. Isolated BALB/c islets dispersed into single cells using Dispase (1 mg/ml) consist predominantly of insulin-producing beta cells, as confirmed by immunofluorescence. […] Placement of treated cells on an ECM (produced in vitro by a cell line) was able to largely rescue the beta cells from heparitinase-induced cell death (P<0.0001) (FIG. 9(a)). These findings indicate that islet beta cells need cell-associated HS to survive. […] Islet beta cells therefore require cell-associated HS to remain viable and healthy.

Row | Substance | islet allograft histology [1] | onset of clinical diabetes [2] | time normoglycemia (non-fasting blood glucose) maintained by islet isograft ([3]; PI-88 10 mg/kg/day i.p. from day 3 post-transplant, control hyperglycemic from day 3) | isograft histology at harvest (hematoxylin and eosin) ([3]; PI-88-treated mouse, control isograft showed aggressive autoimmune destruction) | LPS-induced inflammation [4] | leukocyte behaviour by intra-vital microscopy [4] | skin allograft survival (skin allograft) | rescue of heparitinase-treated beta cells from cell death (BALB/c islet beta cells)
1 | PI-88 | better preservation of the engrafted allogeneic islets | prevents the onset of clinical diabetes in mice up to 24 weeks of age | up to 14 days | revascularised islets | prevented | leukocyte rolling and adherence to the vascular BM but no extravasation |  | 
2 | heparin |  |  |  |  |  |  | prolonged skin allograft survival | efficiently rescued
